Laboratory results as given in patent publication US10105440B2, “Synthetic derivatives of MPL and uses thereof” (VARIATION BIOTECHNOLOGIES INC., priority 2011, dated 2018).

How the values were obtained:
[1] = Reverse phase HPLC analysis of adjuvant co-melted with 1-monopalmitoyl glycerol (thermostability); assay type: physicochemical
Method: Reverse phase HPLC analysis of PHAD and MAV4 co-melted with 1-monopalmitoyl glycerol at the inverted melt method temperature (Example 4) was used to evaluate the thermostability or thermolability of the two adjuvants under these thermal conditions. In the procedure, the samples were prepared as follows, in isopropanol (IPA) using 1.5 ml autoinjection vials as duplicates: PHAD: 20 μg PHAD+180 μg 1-monopalmitoyl glycerol (1:9 wt ratio); MAV4: 10 μg+90 μg 1-monopalmitoyl glycerol (1:9 wt ratio).
The samples were lyophilized overnight. The dried samples were melted for six minutes at 120° C. and 140° C. Each sample was then dissolved in IPA to give a concentration of 0.1 μg/μl for an HPLC load of 20 μL.

[2] = tested on: Human Peripheral Blood Mononuclear Cell (hPBMC); experiment: Cytokine induction assay (BD Cytometric Bead Array) in hPBMC culture supernatants; assay type: cell-based; settings: human PBMCs (n=3) stimulated 48 hours, CBA assay
From the text: The BD™ Cytometric Bead Array (CBA) Human inflammatory Cytokines Kit was used to quantitatively measure Tumor Necrosis Factor (TNF a), Interleukin-6 (IL-6) and Interleukin-1β (IL-1β) protein levels in single samples of Human Peripheral Blood Mononuclear Cell (hPBMC) culture supernatants pretreated with either the adjuvant PHAD or MAV4. The detection reagent provided in the kit was a mixture of phycoerythrin (PE)-conjugated antibodies, which provides a fluorescent signal in proportion to the amount of bound cytokine.
When the capture beads and detector reagent are incubated with an unknown sample containing recognized cytokines, sandwich complexes (capture bead+cytokine+detection reagent) are formed. These complexes are measured using flow cytometry.
To perform the assay lyophilized human inflammatory cytokine standards were reconstituted with assay diluent and serially diluted (standard curve for each protein covers a defined set of concentrations from […]) and test samples were diluted to the desired dilution factor using the assay diluent before mixing all assay tubes with capture beads (50 μl) and PE detection reagent (50 μl). […] Samples were then analyzed by flow cytometry and data was analyzed using FCAP Array Software. […]

## phosphorylated hexaacyl disaccharide [PHAD]
[1]; co-melted with 1-monopalmitoyl glycerol (1:9 wt), melted six minutes at 140° C. versus 120° C.
  Area Under the Curve (AUC) of the HPLC peak: significant decrease
[1]; co-melted with 1-monopalmitoyl glycerol, melted at 120° C. and 140° C.
  minor peaks (degradation) in the chromatogram: No minor peaks were observed
[2]
  secretion of TNF-α, IL-1β and IL-6: induced dose-dependent immune responses
